Like-named read-outs stand apart in the source and are kept apart here.
Tests used:
HIV protease = target: T1, HIV protease (Human immunodeficiency virus type 1 group M subtype B, UniProt P04585); assay: HIV protease enzyme assay (fluorescence, peptide substrate); format: biochemical; conditions: concentration reducing enzyme activity by 50%; substrate 80 μM, enzyme 12.3 nanomolar, pH 6.4
T1 construct: HIV protease is diluted in the assay buffer to a final enzyme concentration of 12.3 nanomolar, based on a molecular weight of 10,780
Description: The compounds of the present invention are effective HIV protease inhibitors. Utilizing an enzyme assay as described below, the compounds set forth in the examples herein disclosed inhibited the HIV enzyme. The preferred compounds of the present invention and their calculated IC50 (inhibiting concentration 50%, i.e., the concentration at which the inhibitor compound reduces enzyme activity by 50%) values are shown in Table 16. The enzyme method is described below. The substrate is 2-Ile-Nle-Phe(p-NO2)-Gln-ArgNH2. The positive control is MVT-101 (Miller, M. et al, Science, 246, 1149 (1989)] The assay conditions are as follows:
20 mM sodium phosphate, pH 6.4
The above described substrate is dissolved in DMSO, then diluted 10 fold in assay buffer. Final substrate concentration in the assay is 80 μM.
HIV protease is diluted in the assay buffer to a final enzyme concentration of 12.3 nanomolar, based on a molecular weight of 10,780.
The final concentration of DMSO is 14% and the final concentration of glycerol is 18%. The test compound is dissolved in DMSO and diluted in DMSO to 10× the test concentration; 10 μl of the enzyme preparation is added, the materials mixed and then the mixture is incubated at ambient temperature for 15 minutes. The enzyme reaction is initiated by the addition of 40 μl of substrate. The increase in fluorescence is monitored at 4 time points (0, 8, 16 and 24 minutes) at ambient temperature. Each assay is carried out in duplicate wells.

HIV-1 in CEM cells = assay: CEM cell assay: HIV inhibition in acutely infected cells, tetrazolium (MTT) colorimetric; format: cell-based; conditions: Human immunodeficiency virus 1, CCRF-CEM, 168 h
Experimental: The effectiveness of various compounds were determined in the above-described enzyme assay and in a CEM cell assay.
The HIV inhibition assay method of acutely infected cells is an automated tetrazolium based colorimetric assay essentially that reported by Pauwles et al, J. Virol. Methods, 20, 309-321 (1988). Assays were performed in 96-well tissue culture plates. CEM cells, a CD4+ cell line, were grown in RPMI-1640 medium (Gibco) supplemented with a 10% fetal calf serum and were then treated with polybrene (2 μg/ml). An 80 μl volume of medium containing 1×10^4 cells was dispensed into each well of the tissue culture plate. To each well was added a 100 μl volume of test compound dissolved in tissue culture medium (or medium without test compound as a control) to achieve the desired final concentration and the cells were incubated at 37° C. for 1 hour. A frozen culture of HIV-1 was diluted in culture medium to a concentration of 5×10^4 TCID50 per ml (TCID50=the dose of virus that infects 50% of cells in tissue culture), and a 20 μL volume of the virus sample (containing 1000 TCID50 of virus) was added to wells containing test compound and to wells containing only medium (infected control cells). Several wells received culture medium without virus (uninfected control cells). Likewise, the intrinsic toxicity of the test compound was determined by adding medium without virus to several wells containing test compound. In summary, the tissue culture plates contained the following experiments:
In experiments 2 and 4 the final concentrations of test compounds were 1, 10, 100 and 500 μg/ml. Either azidothymidine (AZT) or dideoxyinosine (ddI) was included as a positive drug control. […] DMSO was added to all control wells at an appropriate concentration.
Following the addition of virus, cells were incubated at 37° C. in a humidified, 5% CO2 atmosphere for 7 days. Test compounds could be added on days 0, 2 and 5 if desired. On day 7, post-infection, the cells in each well were resuspended and a 100 μl sample of each cell suspension was removed for assay. A 20 μL volume of a 5 mg/ml solution of 3-(4,5-dimethylthiazol-2-yl)-2,5-diphenyltetrazolium bromide (MTT) was added to each 100 μL cell suspension, and the cells were incubated for 4 hours at […] in a 5% CO2 environment. […] To each sample was added 100 μl of 10% sodium dodecylsulfate in 0.01 N HCl to lyse the cells, and samples were incubated overnight. The absorbance at 590 nm was determined for each sample using a Molecular Devices microplate reader. Absorbance values for each set of wells is compared to assess viral control infection, uninfected control cell response as well as test compound by cytotoxicity and antiviral efficacy.

[1] = CEM cells acutely infected with HIV-1, 7 days, MTT readout, read-out: EC50

| SMILES | IC50 (HIV protease) [nM] | EC50 (HIV-1 in CEM cells; [1]) [nM] | EC50 (HIV-1 in CEM cells) [nM] |
| --- | --- | --- | --- |
| COc1ccc(S(=O)(=O)N(CC(C)C)C[C@@H](O)[C@H](Cc2ccccc2)NC(=O)[C@H](C)CS(=O)(=O)N2CCOCC2)cc1 [Example 1] | 10 | 32 |  |
| COc1ccc(S(=O)(=O)N(CC(C)C)C[C@@H](O)[C@H](Cc2ccccc2)NC(=O)[C@H](C)CS(=O)(=O)N2CCN(C)CC2)cc1 [Example 2] | 8 |  | 77 |
| COc1ccc(S(=O)(=O)N(CC(C)C)C[C@@H](O)[C@H](Cc2ccccc2)NC(=O)[C@H](C)CS(N)(=O)=O)cc1 [Example 3] | 6 |  | 40 |
| COc1ccc(S(=O)(=O)N(CC(C)C)C[C@@H](O)[C@H](Cc2ccccc2)NC(=O)[C@H](C)CS(=O)(=O)N(C)C)cc1 [Example 4] | 4 |  | 15 |
| COc1ccc(S(=O)(=O)N(CC(C)C)C[C@@H](O)[C@H](Cc2ccccc2)NC(=O)[C@H](C)CS(=O)(=O)N2CCCCC2)cc1 [Example 5] | 13 |  | 210 |
| COc1ccc(S(=O)(=O)N(CC(C)C)C[C@@H](O)[C@H](Cc2ccccc2)NC(=O)[C@H](C)CS(=O)(=O)N(Cc2ccccc2)C(c2ccccc2)c2ccccc2)cc1 [Example 6] | 4 |  |  |
| COc1ccc(S(=O)(=O)N(CC(C)C)C[C@@H](O)[C@H](Cc2ccccc2)NC(=O)[C@H](C)CS(=O)(=O)NCc2ccccc2)cc1 [Example 7] | 3 |  | 32 |
| CC(C)CN(C[C@@H](O)[C@H](Cc1ccccc1)NC(=O)[C@H](C)CS(=O)(=O)N1CCNCC1)S(=O)(=O)c1ccc2c(c1)OCO2 [Example 8] | 9 | 415 |  |
| CC(C)CN(C[C@@H](O)[C@H](Cc1ccccc1)NC(=O)[C@H](C)CS(=O)(=O)N1CCN(Cc2ccccc2)CC1)S(=O)(=O)c1ccc2c(c1)OCO2 [Example 9] | 6 | 84 |  |
| CC(C)CN(C[C@@H](O)[C@H](Cc1ccccc1)NC(=O)[C@H](C)CS(=O)(=O)N1CCN(Cc2ccccn2)CC1)S(=O)(=O)c1ccc2c(c1)OCO2 [Example 10] | 10 | 56 |  |
| CC(C)CN(C[C@@H](O)[C@H](Cc1ccccc1)NC(=O)[C@H](C)CS(=O)(=O)N1CCN(Cc2cccnc2)CC1)S(=O)(=O)c1ccc2c(c1)OCO2 [Example 11] | 9 |  |  |
| CC(C)CN(C[C@@H](O)[C@H](Cc1ccccc1)NC(=O)[C@H](C)CS(=O)(=O)N1CCN(Cc2ccncc2)CC1)S(=O)(=O)c1ccc2c(c1)OCO2 [Example 12] | 9 | 42 |  |
| CC(C)CN(C[C@@H](O)[C@H](Cc1ccccc1)NC(=O)[C@H](C)CS(=O)(=O)N1CCCC1)S(=O)(=O)c1ccc2c(c1)OCO2 [Example 13] | 6 | 176 |  |
| CC(C)CN(C[C@@H](O)[C@H](Cc1ccccc1)NC(=O)[C@H](C)CS(=O)(=O)N(C)c1ccccc1)S(=O)(=O)c1ccc2c(c1)OCO2 [Example 14] | 4 | 85 |  |
| CC(C)CN(C[C@@H](O)[C@H](Cc1ccccc1)NC(=O)[C@H](C)CS(=O)(=O)N(C)Cc1ccccc1)S(=O)(=O)c1ccc2c(c1)OCO2 [Example 15] | 4 |  |  |

Reference: patent publication US6569882B2, “Bis-sulfonamide hydroxyethyl-amino retroviral protease inhibitors” (G. D. Searle & Co., priority 1995, dated 2003)
